Two molecules from ChEMBL document CHEMBL1133304, “Design and synthesis of potent thiol-based inhibitors of endothelin converting enzyme-1” (Bioorg Med Chem Lett, 2000) can be followed below.

One may read the Inhibition as the share of the control response that was lost under treatment. A higher Inhibition goes with a response far below the control. In general, IC50 refers to the concentration needed to halve the response being measured. Lower therefore signals greater potency in that assay.

Assay [1] has as its system Rattus norvegicus. The experiment in a line: Intravenously injected compound (0.3 nmol/kg) was tested in rat for the inhibitory activity against endothelin-1 (ET-1) pressor response after 24 hour. Type of assay: functional.
The subject of assay [2] is Rattus norvegicus. Briefly: Intravenously injected compound (0.3 nmol/kg) was tested in rat for the inhibitory activity against endothelin-1 (ET-1) pressor response after 8 hour. The assay is classed as functional.
Assay [3] addresses T1, Endothelin-converting enzyme 1 (Homo sapiens, UniProt P42892).
T1 sequence (P42892 whole entry): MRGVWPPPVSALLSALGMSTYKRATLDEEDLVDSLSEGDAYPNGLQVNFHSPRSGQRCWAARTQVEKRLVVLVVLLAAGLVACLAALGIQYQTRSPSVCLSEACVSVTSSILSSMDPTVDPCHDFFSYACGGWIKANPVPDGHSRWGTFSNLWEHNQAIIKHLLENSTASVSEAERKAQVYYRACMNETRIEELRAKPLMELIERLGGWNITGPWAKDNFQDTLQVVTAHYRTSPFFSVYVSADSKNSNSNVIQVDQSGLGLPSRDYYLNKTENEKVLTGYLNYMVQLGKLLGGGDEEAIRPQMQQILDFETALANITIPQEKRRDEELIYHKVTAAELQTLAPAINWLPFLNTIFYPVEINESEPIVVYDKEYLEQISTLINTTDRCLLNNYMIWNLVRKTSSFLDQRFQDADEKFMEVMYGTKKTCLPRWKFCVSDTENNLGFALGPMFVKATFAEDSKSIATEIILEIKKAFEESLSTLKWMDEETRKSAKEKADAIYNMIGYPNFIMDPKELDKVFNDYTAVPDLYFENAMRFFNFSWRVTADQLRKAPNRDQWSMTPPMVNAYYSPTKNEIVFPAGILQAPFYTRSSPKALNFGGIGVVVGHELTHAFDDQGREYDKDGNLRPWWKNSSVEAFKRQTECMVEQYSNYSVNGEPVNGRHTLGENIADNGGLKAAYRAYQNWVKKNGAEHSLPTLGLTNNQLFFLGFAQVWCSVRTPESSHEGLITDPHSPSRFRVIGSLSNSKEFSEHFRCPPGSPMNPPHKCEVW
Briefly: In vitro inhibition of human Endothelin converting Enzyme-1 activity.

`CCC[C@H](SC(C)=O)C(=O)NC1(C(=O)N[C@@H](Cc2ccc(-c3ccccc3)cc2)C(=O)OC)CCCC1`: the Inhibition in assay [1] stood at 30%; in assay [2], 75%. `CC(C)[C@H](S)C(=O)NC1(C(=O)N[C@@H](Cc2ccc(-c3ccccc3)cc2)C(=O)O)CCCC1` yielded a half-maximal inhibitory concentration (IC50) in assay [3] of 0.077 µM.
